From patent US20120245229A1, “METHOD FOR TREATING NEUROPATHIC PAIN” (priority 2009, published 2012)

How the values were obtained:
[1] = test system: SNL-induced neuropathic pain; assay: Neuropathic pain model induced by spinal nerve ligation (SNL); format: in vivo, mice
Experimental: (§1) Animals and pain models. Adult CD1 mice (male, 25-32 g) were used for most experiments. Knockout mice were used lacking TNFR1/II (Tnfrsf1a/1b^−/−) and TRPV1 (Trpv1^−/−) and C57BL/6 wild-type control mice, all from Jackson, for some experiments. All animal procedures performed in this study were approved by the Harvard Medical Area Standing Committee on Animals. 20 μl of diluted formalin (5%), carrageenan (CRG, 1%), or complete Freund's adjuvant (CFA) were injected into the plantar surface of a hindpaw to produce acute, persistent, or chronic inflammatory pain, respectively. Postoperative pain was also produced through hindpaw incision^36 and neuropathic pain by ligation of the spinal nerve^37.
(§2) Behavioral analysis. Mice were habituated in the testing environment for two days and performed behavioral testing in a blinded manner. Formalin-evoked spontaneous inflammatory pain was assessed by measuring duration (seconds) animals spent on licking/flinching the affected paws every 5 min for 45 min. Capsaicin-induced spontaneous pain was aslo assessed for 10 min. For testing mechanical sensitivity, mice were put in boxes on an elevated metal mesh floor and stimulated hindpaw with a series of von Frey hairs with logarithmically incrementing stiffness (0.02-2.56 grams, Stoelting), presented perpendicular to the plantar surface. It was determined the 50% paw withdrawal threshold using Dixon's up-down method^40. For testing heat sensitivity, mice were placed in plastic boxes and tested heat sensitivity using Hargreaves radiant heat apparatus (IITC Life Science Inc.). The basal paw withdrawal latency was adjusted to 9-12 seconds and set a cut-off of 20 seconds to prevent tissue damage. The percent maximal possible antinociceptive effect (% M.P.E) was calculated using the equation % M.P.E.=[(PL−BL2)/(BL1−BL2)]×100. BL1, baseline latency before inflammation; BL2, baseline latency after inflammation but before drug injection; PL, latency post drug injection.

[2] = test system: formalin-induced inflammatory pain; assay: Formalin-induced spontaneous inflammatory pain (licking/flinching duration); format: in vivo, mice; settings: intraplantar RvE1 20 ng, 10 min before intraplantar formalin
naïve mice = assay: Basal pain thresholds in naive mice; format: in vivo; settings: intrathecal
Experimental: as §2

[3] = test system: CFA-induced mechanical allodynia; assay: CFA-induced mechanical allodynia (von Frey paw withdrawal threshold); format: in vivo, mice; settings: intrathecal RvE1 3-100 ng, 3 d after CFA injection
Experimental: as §1
Behavioral analysis. Mice were habituated in the testing environment for two days and performed behavioral testing in a blinded manner. Formalin-evoked spontaneous inflammatory pain was assessed by measuring duration (seconds) animals spent on licking/flinching the affected paws every 5 min for 45 min. Capsaicin-induced spontaneous pain was aslo assessed for 10 min. […] It was determined the 50% paw withdrawal threshold using Dixon's up-down method^40. […] The percent maximal possible antinociceptive effect (% M.P.E) was calculated using the equation % M.P.E.=[(PL−BL2)/(BL1−BL2)]×100. […]

[4] = test system: intrathecal TNF-α-induced hypersensitivity; assay: Intrathecal TNF-α-induced heat hyperalgesia and mechanical allodynia; format: in vivo, mice
Experimental: as §2, with “The percent maximal possible antinociceptive effect (% M.P.E) was calculated using the equation % M.P.E.=[(PL−BL2)/(BL1−BL2)]×100.” left out, “injection. Intrathecal injection: […] To examine whether pretreatment of RvE1 attenuates capsaicin-induced acute spontaneous pain, RvE1 and capsaicin were mixed and injected at the same time (FIG. 3f).” for “injection.”

[5] = test system: glutamate NMDA receptors (NMDARs); assay: NMDA-induced currents in dorsal horn (lamina II) neurons of spinal cord slices; format: cell-based, mice; settings: NMDA 50 μM; TNF-α 10 ng/ml; PD98059 1 μM, U0126 1 μM, capsazepine 10 μM
Experimental: Spinal cord slice preparation. As previously reported^39, a portion of the lumbar spinal cord (L4-L5) was removed from young mice (3-4 week old) under urethane anesthesia (1.5-2.0 g/kg, i.p.) and transverse spinal cord slices were cut (600 μm) on a vibrating microslicer. The slices were perfused with Kreb's solution (8 ml/min) for >2 h prior to experiments. Some slices were stimulated with TNF-α (10 ng/ml, 5 min), the slices were fixed with 4% paraformaldehyde for 1 h, and processed pERK immunohistochemistry using thin sections (15 μm)^13.
Patch clamp recordings in spinal slices. Whole cell patch-clamp recordings were performed in lamina II neurons in voltage clamp mode^39. After establishing the whole-cell configuration, neurons were held at the holding potentials of −70 mV for recording spontaneous excitatory postsynaptic current (sEPSC). NMDA-induced currents were recorded by bath application of NMDA (50 μM, Sigma) at the holding potential of −50 mV. Membrane currents were amplified with an Axopatch 200A amplifier (Axon Instruments) in voltage-clamp mode. pCLAMP 6 was used and Mini Analysis (Synaptosoft Inc.) software to store and analyze the data. Those cells showing >5% changes from the baseline levels were reagrded as responding ones^24.
Resolvins were also used for intraplantar injection. RvD1 or RvE1 was injected into the plantar surface of a hindapaw [20 ng, 20 μl , in 1% ethanol (Supplementary FIG. 5a, 5b) or in 10% ethanol (FIG. 2e, Supplementary FIG. 1d)]. DRG cultures were incubated with RvE1 (10 ng/ml, 0.1% ethanol in culture medium) and perfused spinal cord slices with RvE1 (1 ng/ml, in 0.01% ethanol and Kreb's solution).
Perfusion of spinal cord slices: Spinal cord slices were incubated with chemerin (100 ng/ml, in Kreb's solution), TNF-α (10 ng/ml, in Kreb's solution), capsaicin (100 nM, in 0.01% DMSO and Kreb's solution), TRPV1 antagonist capsazepine (Sigma, 10 μM, in 0.01% DMSO and Kreb's solution), pertussix toxin (0.5 μg/ml, in Kreb's solution), and MEK inhibitor PD98059 and U0126 (CalBiochem, 1 μM, in 0.01% DMSO and Kreb's solution). For pertussix toxin treatment, spinal cord slices were incubated with the toxin for 3 h before stimulation.

**Q.** How did the SNL-induced heat hyperalgesia ([1]; 10 ng, i.t., one day after spinal nerve ligation) turn out when `CC[C@@H](O)/C=C/C=C\C[C@@H](O)/C=C/C=C/C=C\[C@@H](O)CCCC(=O)O` [RvE1, 5S,12R,18R-trihydroxyeicosapentaenoic acid] was run?
**A.** The SNL-induced heat hyperalgesia was “reduces SNL-induced heat hyperalgesia”.

**Q.** And the nerve injury-induced hyperalgesia ([1]; neuropathic pain model induced by spinal nerve ligation)?
**A.** Its nerve injury-induced hyperalgesia is “potently attenuate”.

**Q.** What about the formalin-evoked acute pain [2] of the same compound?
**A.** The formalin-evoked acute pain was “rapidly attenuated”.

**Q.** What about the baseline sensory thresholds (naïve mice) of the same compound?
**A.** The baseline sensory thresholds was “did not alter baseline sensory thresholds”.

**Q.** What about the CFA-induced mechanical allodynia [3] of the same compound?
**A.** Its CFA-induced mechanical allodynia is “reduces CFA-induced mechanical allodynia in a dose-dependent manner”.

**Q.** And the “mechanical allodynia induced by TNF-α” value ([4]; intrathecal RvE1 pretreatment)?
**A.** Its value is “attenuated”.

**Q.** And the TNF-α-induced heat hyperalgesia ([4]; spinal (intrathecal) RvE1 mixed with TNF-α 20 ng)?
**A.** The TNF-α-induced heat hyperalgesia was “substantially reduced”.

**Q.** What about the “TNF-α-induced potentiation of NMDA currents (NMDAR activation)” value [5] of the same compound?
**A.** Its value is “blocked this potentiation”.
